Patent US20040152596A1, “Coated seed and process for coating a seed” (priority 2001, published 2004)

How the values were obtained:
Tomato = details: for Emergence percentage: fertilizer 10% of seed weight, fixing agent 2% of seed weight
Protocol: (§1) A number of tests were carried out with the purpose of finding for various plant species the optimal fertilizer and the optimal fertilizer amount in terms of emergence. […] The fixing agent was used in an amount of 2% of the weight of the seeds. […] These percentages are % by weight, calculated from the seed weight.

[1] = fertilizer 4% of seed weight, fixing agent 2% of seed weight

Protocol for Barley: as §1
Protocol for Pea: A number of tests were carried out with the purpose of finding for various plant species the optimal fertilizer and the optimal fertilizer amount in terms of emergence. […] The fixing agent was used in an amount of 2% of the weight of the seeds. […] (DCP) or urea phosphate (UP). […] These percentages are % by weight, calculated from the seed weight.
The results of the emergence tests are shown in Table 2, wherein the numeric values indicate the emergence percentage.
Protocol for Rape: as §1
Protocol for Sunflower: as §1
Protocol for Wheat: as §1

| Structure (SMILES) | Combined effect in terms of plant emergence and phosphorus uptake (Wheat) | Emergence percentage (Wheat; [1]) [%] | Emergence percentage (Rape; fertilizer 8% of seed weight, fixing agent 2% of seed weight) | Combined effect in terms of plant emergence and phosphorus uptake (Tomato) | Emergence percentage (Tomato) [%] | Emergence percentage (Pea; [1]) | Combined effect in terms of plant emergence and phosphorus uptake (Sunflower) | Emergence percentage (Sunflower; fertilizer 10% of seed weight, fixing agent 2% of seed weight) [%] | Combined effect in terms of plant emergence and phosphorus uptake (Barley) | Emergence percentage (Barley; fertilizer 6% of seed weight, fixing agent 2% of seed weight) [%] | Suitability of phosphorus fertilizer as seed coating (emergence table) (Wheat) | Suitability of phosphorus fertilizer as seed coating (emergence table) (Rape) | Suitability of phosphorus fertilizer as seed coating (emergence table) (Pea) | Suitability of phosphorus fertilizer as seed coating (emergence table) (Sunflower) | Suitability of phosphorus fertilizer as seed coating (emergence table) (Barley) |
| --- | --- | --- | --- | --- | --- | --- | --- | --- | --- | --- | --- | --- | --- | --- | --- |
| O=P([O-])(O)O.[K+] [MKP, monopotassium phosphate] | best combined effect | 85 | 85 (8%) | best combined effect | 80 | 95 (4%) | best combined effect | 87 | best combined effect | 93 | – | – | – | – | – |
| NC(N)=O.O=P(O)(O)O [UP, urea phosphate] | – | – | – | best combined effect | 82 | – | – | – | – | – | Not suitable | Not suitable | Not suitable | Not suitable | Not suitable |
